Results reported in patent publication US20060228313A1, “Method of cosmetic depigmentation care by applying at least one aurone” (Coletica, priority 2005, published 2006).

Target: T1, Human tyrosinase (Homo sapiens, UniProt P14679)
T1 construct: Normal human melanocytes (originating from abdominal plasty) are sown in a 24-well plate; endogenous in cells; host or cells: normal human melanocytes (abdominal plasty; donors of light, brown and black phototype)
T1 sequence (P14679 19-529): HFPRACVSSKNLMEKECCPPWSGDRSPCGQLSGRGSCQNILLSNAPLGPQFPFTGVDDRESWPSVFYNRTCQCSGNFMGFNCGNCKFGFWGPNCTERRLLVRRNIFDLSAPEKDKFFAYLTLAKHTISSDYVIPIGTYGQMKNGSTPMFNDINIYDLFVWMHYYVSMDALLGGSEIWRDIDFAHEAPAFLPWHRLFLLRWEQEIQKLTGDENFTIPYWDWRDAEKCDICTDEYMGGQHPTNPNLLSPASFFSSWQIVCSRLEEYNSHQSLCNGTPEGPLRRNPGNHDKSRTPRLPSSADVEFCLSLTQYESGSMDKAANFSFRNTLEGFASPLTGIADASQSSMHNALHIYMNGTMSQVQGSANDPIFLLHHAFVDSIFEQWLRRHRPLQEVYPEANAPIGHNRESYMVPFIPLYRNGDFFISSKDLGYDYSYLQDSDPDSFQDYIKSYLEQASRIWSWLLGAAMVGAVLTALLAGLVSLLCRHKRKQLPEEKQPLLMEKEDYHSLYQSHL
Assay: Inhibition of human tyrosinase in a monolayer after application of the actives on normal human melanocytes
Assay type: cell-based
Details: for Inhibition of human tyrosinase after application on normal human melanocytes, percentage inhibition: 24 hours
Experimental: Normal human melanocytes (originating from abdominal plasty) are sown in a 24-well plate at the rate of 80,000 cells per well. They are cultivated up to confluence and the actives are applied for 24 hours in the culture media. After 24 hours, the media are removed and the melanocytes are picked up by mechanical action. An extraction is made by heat shock and the supernatants are then recovered and then incubated with MBTH (Sigma) and L-Dopa (Sigma). The OD at 490 nm is measured after 30 minutes, and the inhibition is of the tyrosinase is calculated by comparing the OD at 490 nm to the protein level (measured in each culture well) of the test with respect to the ratio: OD 490 nm/concentration of protein of the negative control (non-treated control). […]

Row | Structure (SMILES) | Inhibition of human tyrosinase after application on normal human melanocytes, percentage inhibition (10^−4M) [%] | Inhibition of human tyrosinase after application on normal human melanocytes, percentage inhibition (10^−5M) [%] | Inhibition of human tyrosinase on normal human melanocytes, result in words (model of Example 15)
1 | COc1cc(OC)c2c(c1)O/C(=C\c1[nH]c(C)cc1C)C2=O [Example 5t, (Z)-4,6-Dimethoxy-2-[(3,5-dimethylpyrrole)methylene]benzofuran-3(2H)-one] | 5.1 | 0 | –
2 | COc1cc(OC)c2c(c1)O/C(=C\c1ccc(S(=O)(=O)O)cc1)C2=O [Example 5e, (Z)-4,6-dimethoxy-2-(4′-sulfonatebenzylidene)benzofuran-3(2H)-one] | 0 | 1.44 | –
3 | COc1cc(OC)c2c(c1)O/C(=C\c1ccc(S(=O)(=O)O)cc1S(=O)(=O)O)C2=O [Example 5f, (Z)-4,6-dimethoxy-2-(2′,4′-disulfonatebenzylidene)benzofuran-3(2H)-one] | 9.36 | 2.88 | –
4 | CCc1ccccc1/C=C1\Oc2cc(O)ccc2C1=O [Example 3b, (Z)-2-(2′-Ethyl)Benzylidene-6-Hydroxybenzofuran-3(2H)-one] | 0 | 0 | –
5 | CCc1ccc(/C=C2\Oc3cc(O)ccc3C2=O)cc1 [Example 3a, (Z)-2-(4′-Ethyl)Benzylidene-6-Hydroxybenzofuran-3(2H)-one] | 0 | 23.9 | –
6 | COc1cc(OC)c2c(c1)O/C(=C\c1cc(C)c(C)o1)C2=O [Example 5o, (Z)-4,6-Dimethoxy-2-[(4,5-dimethylfuran)methylene]benzofuran-3(2H)-one] | 23.2 | 12.1 | –
7 | COc1cc(OC)c2c(c1)O/C(=C\c1ccc[nH]1)C2=O [Example 5s, (Z)-4,6-Dimethoxy-2-[(pyrrole)methylene]benzofuran-3(2H)-one] | 13.7 | 0 | –
8 | COc1cc(OC)c2c(c1)O/C(=C\c1cccs1)C2=O [Example 5p, (Z)-4,6-Dimethoxy-2-[(thiophene)methylene]benzofuran-3(2H)-one] | 31.3 | 6.4 | –
9 | CCc1ccc(/C=C2\Oc3cc(OC)cc(OC)c3C2=O)o1 [Example 5n, (Z)-4,6-Dimethoxy-2-[(5-ethylfuran)methylene]benzofuran-3(2H)-one] | 7.8 | 0 | –
10 | O=C1/C(=C/c2ccc[nH]2)Oc2cc(O)cc(O)c21 [Example 7s, (Z)-4,6-Dihydroxy-2-[(pyrrole)methylene]benzofuran-3(2H)-one] | 22.8 | 9.1 | –
11 | COc1cc(OC)c2c(c1)O/C(=C\c1ccc(C)s1)C2=O [Example 5q, (Z)-4,6-Dimethoxy-2-[(5-methylthiophene)methylene]benzofuran-3(2H)-one] | 4.8 | 0 | –
12 | O=C1/C(=C/c2cccs2)Oc2cc(O)cc(O)c21 [Example 7p, (Z)-4,6-Dihydroxy-2-[(thiophene)methylene]benzofuran-3(2H)-one] | 35.2 | 15.3 | –
13 | COc1cc(OC)c2c(c1)O/C(=C\c1ccco1)C2=O [Example 5m, (Z)-4,6-Dimethoxy-2-[(furan)methylene]benzofuran-3(2H)-one] | 19.5 | 6.4 | –
14 | O=c1cc(-c2ccc(O)cc2)oc2cc(O)cc(O)c12 [Apigenin, reference compound] | – | – | do not inhibit tyrosinase

Results, then the compound that gave them:

Row | Inhibition of human tyrosinase after application on normal human melanocytes, percentage inhibition (10^−4M) [%] | Inhibition of human tyrosinase after application on normal human melanocytes, percentage inhibition (10^−5M) [%] | Inhibition of human tyrosinase on normal human melanocytes, result in words (model of Example 15) | Structure (SMILES)
15 | 5.43 | 26.88 | – | CCCc1ccc(/C=C2\Oc3cc(O)cc(O)c3C2=O)cc1 [Example 7h]
16 | 13.6 | 4.5 | – | Cc1cc(/C=C2\Oc3cc(O)cc(O)c3C2=O)oc1C [Example 7o, (Z)-4,6-Dihydroxy-2-[(4,5-dimethylfuran)methylene]benzofuran-3(2H)-one]
17 | 0 | 31.86 | – | CC(C)c1ccc(/C=C2\Oc3cc(O)cc(O)c3C2=O)cc1 [Example 7i]
18 | 13.8 | 0 | – | CCc1ccc(/C=C2\Oc3cc(O)cc(O)c3C2=O)s1 [Example 7r, (Z)-4,6-Dihydroxy-2-[(5-ethylthiophene)methylene]benzofuran-3(2H)-one]
19 | 26.4 | 0 | – | Cc1cc(C)c(/C=C2\Oc3cc(O)cc(O)c3C2=O)[nH]1 [Example 7t, (Z)-4,6-Dihydroxy-2-[(3,5-dimethylpyrrole)methylene]benzofuran-3(2H)-one]
20 | 0 | 6.1 | – | CCc1ccccc1/C=C1\Oc2cc(O)cc(O)c2C1=O [Example 7l]
21 | 12.85 | 4.32 | – | O=C1/C(=C/c2ccccc2O)Oc2cc(O)cc(O)c21 [Example 9c]
22 | 23.6 | 6.4 | – | O=C1/C(=C/c2ccco2)Oc2cc(O)cc(O)c21 [Example 7m, (Z)-4,6-Dihydroxy-2-[(furan)methylene]benzofuran-3(2H)-one]
23 | 16.4 | 7 | – | Cc1ccc(/C=C2\Oc3cc(O)cc(O)c3C2=O)s1 [Example 7q, (Z)-4,6-Dihydroxy-2-[(5-methylthiophene)methylene]benzofuran-3(2H)-one]
24 | 28.5 | 13.4 | – | CCc1ccc(/C=C2\Oc3cc(O)cc(O)c3C2=O)o1 [Example 7n, (Z)-4,6-Dihydroxy-2-[(5-ethylfuran)methylene]benzofuran-3(2H)-one]
25 | 0 | 4.83 | – | O=C1/C(=C/c2ccc(S(=O)(=O)O)cc2)Oc2cc(O)cc(O)c21 [Example 7e]
26 | 0 | 25.1 | – | CC(C)(C)c1ccc(/C=C2\Oc3cc(O)cc(O)c3C2=O)cc1 [Example 7k]
